SMILES strings stand for the structures. Structures can show the parent of a compound that is named as a salt. Where two headings read alike, the source gives them in different places.

One data set relates to SUDHL5. The experiment in a line: Induction of cytotoxicity (Assay 6), SUDHL5. Particulars: read-out: Cytotox SUDHL5 [M] (median) IC50, CellTiter-Glo, 5 hours, SUDHL5.
Another data set deals with MCL-1 (Homo sapiens (Human), UniProt Q07820, K194A/K197A/R201A). In words: Protein-protein interaction assay MCL-1/Noxa BH3 peptide (MCL-1 assay, TR-FRET). The class given is binding. Conditions: MBP-MCL-1 / Noxa BH3 peptide, median. The gist of the method: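 TR-FRET competition assay read at 665/620 nm, with a Noxa BH3 tracer peptide (1 nM) plus Eu-cryptate anti-MBP and XL665-streptavidin. Compounds (0.1 nM-20 μM, duplicates) were pre-equilibrated 10 min at 22° C with 1 nM MBP-MCL-1 (173-329) in Tris pH 7, NaCl, KF, DTT buffer, then incubated 1 h at 22° C and overnight at 4° C. IC50 came from 4-parameter regression.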
Sequence of MCL-1 (Q07820 whole entry K194A/K197A/R201A, looked up): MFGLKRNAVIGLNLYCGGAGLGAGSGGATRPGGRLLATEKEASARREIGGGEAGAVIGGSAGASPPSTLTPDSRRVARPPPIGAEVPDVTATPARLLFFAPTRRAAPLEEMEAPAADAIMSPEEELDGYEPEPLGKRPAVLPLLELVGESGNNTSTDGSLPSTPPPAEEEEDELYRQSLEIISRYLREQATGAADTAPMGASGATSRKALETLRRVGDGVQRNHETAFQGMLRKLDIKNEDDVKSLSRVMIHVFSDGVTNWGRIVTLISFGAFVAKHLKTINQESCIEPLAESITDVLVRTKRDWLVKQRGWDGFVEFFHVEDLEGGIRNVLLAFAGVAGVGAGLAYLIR

Take `Cc1c2c(nn1C)C(CCN1CCOCC1)N(C)S(=O)(=O)CCCn1c(C(=O)O)c(CCCOc3cccc4ccccc34)c3cccc-2c31` (single isomer, unassigned; enantiomer 1) [Example 45, 2,3,14-trimethyl-15-[2-(morpholin-4-yl)ethyl]-7-{3-[(naphthalen-1-yl)oxy]propyl}-13,13-dioxo-10,11,12,13,14,15-hexahydro-2H-13lambda^6-pyrazolo[3′,4′:4,5][1,2,8]thiadiazacycloundecino[6,7,8-hi]indole-8-carboxylic acid N-ethylethanamine Salt (Enantiomer 1)]: the IC50 in the data set on SUDHL5 was determined as 2e-05 M; against MCL-1, 33 nM.
Consider `CCc1c2c(nn1C)C(CCC1CCOCC1)N(C)S(=O)(=O)CCCn1c(C(=O)O)c(CCCOc3cccc4cc(F)ccc34)c3ccc(Cl)c-2c31` (single isomer, unassigned; enantiomer 4) [Example 64, (−)-4-chloro-3-ethyl-7-{3-[(6-fluoronaphthalen-1-yl)oxy]propyl}-2,14-dimethyl-15-[2-(oxan-4-yl)ethyl]-13,13-dioxo-10,11,12,13,14,15-hexahydro-2H-13lambda^6-pyrazolo[3′,4′:4,5][1,2,8]thiadiazacycloundecino[6,7,8-hi]indole-8-carboxylic acid (Enantiomer 4)], for which the IC50 in the data set with SUDHL5 is 1.2e-06 M; against MCL-1, 21 nM.
Take `Cc1c2c(nn1C)CN(C1CC1)S(=O)(=O)CCCn1c(C(=O)O)c(CCCOc3cccc4cc(F)ccc34)c3ccc(Cl)c-2c31` (racemic) [Example 41, (rac)-4-chloro-14-cyclopropyl-7-{3-[(6-fluoro-1-naphthyl)oxy]propyl}-2,3-dimethyl-11,12,14,15-tetrahydro-2H,10H-pyrazolo[3′,4′:4,5][1,2,8]thiadiazacycloundecino[6,7,8-hi]indole-8-carboxylic acid 13,13-dioxide]: the figures for the IC50 with SUDHL5 and against MCL-1 were 9.7e-07 M and 1.3 nM, respectively.
For the compound `CCc1c2c(nn1C)C(CCC1CCOCC1)N(C)S(=O)(=O)CCCn1c(C(=O)O)c(CCCOc3cccc4cc(F)ccc34)c3ccc(Cl)c-2c31` (single isomer, unassigned; enantiomer 3) [Example 63, (+)-4-chloro-3-ethyl-7-{3-[(6-fluoronaphthalen-1-yl)oxy]propyl}-2,14-dimethyl-15-[2-(oxan-4-yl)ethyl]-13,13-dioxo-10,11,12,13,14,15-hexahydro-2H-13lambda^6-pyrazolo[3′,4′:4,5][1,2,8]thiadiazacycloundecino[6,7,8-hi]indole-8-carboxylic acid (Enantiomer 3)], the figures for the IC50 in the data set on SUDHL5 and against MCL-1 were 4.5e-08 M and 1.1 nM, respectively.
For the compound `Cc1c2c(nn1C)CN(C)S(=O)(=O)CCCn1c(C(=O)O)c(CCCOc3cccc4c3CCCC4)c3ccc(F)c-2c31` (racemic) [Example 29, (rac)-13-Fluoro-8,11,12-trimethyl-1-(3-((5,6,7,8-tetrahydronaphthalen-1-yl)oxy)propyl)-5,6,9,11-tetrahydro-4H,8H-pyrazolo[3′,4′:4,5][1]thia[2,8]diazacycloundecino[6,7,8-hi]indole-2-carboxylic acid 7,7-dioxide], the IC50 came to 1.8e-06 M in the data set with SUDHL5 (Homo sapiens, SU-DHL-5, 5 h) and 3.1 nM against MCL-1.
For `CCc1c2c(nn1C)C(CCC1CCOCC1)N(C)S(=O)(=O)CCCn1c(C(=O)O)c(CCCOc3cccc4cc(F)ccc34)c3ccc(Cl)c-2c31` (single isomer, unassigned; enantiomer 2) [Example 62, (−)-4-chloro-3-ethyl-7-{3-[(6-fluoronaphthalen-1-yl)oxy]propyl}-2,14-dimethyl-15-[2-(oxan-4-yl)ethyl]-13,13-dioxo-10,11,12,13,14,15-hexahydro-2H-13lambda^6-pyrazolo[3′,4′:4,5][1,2,8]thiadiazacycloundecino[6,7,8-hi]indole-8-carboxylic acid (Enantiomer 2)], the IC50 turned out to be 5.3e-06 M in the data set with SUDHL5 and 110 nM on MCL-1.
For `CCc1c2c(nn1C)CNS(=O)(=O)CCCn1c(C(=O)O)c(CCCOc3cccc4ccccc34)c3cccc-2c31` (racemic) [Example 17, (rac)-12-Ethyl-11-methyl-1-(3-(naphthalen-1-yloxy)propyl)-4,5,6,8,9,11-hexahydropyrazolo[3′,4′:4,5][1,2,8]thiadiazacycloundecino[6,7,8-hi]indole-2-carboxylic acid 7,7-dioxide], the IC50 was 9.3e-06 M in the data set on SUDHL5 (Homo sapiens, SU-DHL-5, 5 h) and 8.1 nM against MCL-1.
As to `CCc1c2c(nn1C)CN(C)S(=O)(=O)CCCn1c(C(=O)O)c(CCCOc3cccc4c3CCC4)c3ccc(Cl)c-2c31` [Example 21, (rac)-13-Chloro-1-(3-((2,3-dihydro-1H-inden-4-yl)oxy)propyl)-12-ethyl-8,11-dimethyl-5,6,9,11-tetrahydro-4H,8H-pyrazolo[3′,4′:4,5][1]thia[2,8]diazacycloundecino[6,7,8-hi]indole-2-carboxylic acid 7,7-dioxide], the IC50 with SUDHL5 (Homo sapiens, SU-DHL-5, 5 h) was 1e-06 M; against MCL-1, 1.7 nM.
Turning to `Cc1c2c(nn1C)CNS(=O)(=O)CCCn1c(C(=O)O)c(CCCOc3cccc4cc(F)ccc34)c3ccc(Cl)c-2c31` (racemic) [Example 50, (rac)-4-chloro-7-{3-[(6-fluoro-1-naphthyl)oxy]propyl}-2,3-dimethyl-11,12,14,15-tetrahydro-2H,10H-pyrazolo[3′,4′:4,5][1,2,8]thiadiazacycloundecino[6,7,8-hi]indole-8-carboxylic acid 13,13-dioxide], the IC50 with SUDHL5 (Homo sapiens, SU-DHL-5, 5 h) was 1.4e-06 M; against MCL-1, 0.74 nM.
In the case of `Cc1cc(OCCCc2c(C(=O)O)n3c4c(c(F)ccc24)-c2c(nn(C)c2C)CN(C)S(=O)(=O)CCC3)cc(C)c1Cl` (racemic) [Example 28, (rac)-1-(3-(4-Chloro-3,5-dimethylphenoxy)propyl)-13-fluoro-8,11,12-trimethyl-5,6,9,11-tetrahydro-4H,8H-pyrazolo[3′,4′:4,5][1]thia[2,8]diazacycloundecino[6,7,8-hi]indole-2-carboxylic acid 7,7-dioxide], the IC50 amounted to 3.1e-06 M in the data set on SUDHL5 (Homo sapiens, SU-DHL-5, 5 h) and 4 nM against MCL-1.
Take `CCc1c2c(nn1C)CN(C)S(=O)(=O)CCCn1c(C(=O)O)c(CCCOc3cccc4cc(F)ccc34)c3ccc(F)c-2c31` (racemic) [Example 7, (rac)-12-Ethyl-13-fluoro-1-(3-((6-fluoronaphthalen-1-yl)oxy)propyl)-8,11-dimethyl-5,6,9,11-tetrahydro-4H,8H-pyrazolo[3′,4′:4,5][1]thia[2,8]diazacycloundecino[6,7,8-hi]indole-2-carboxylic acid 7,7-dioxide]: the IC50 stood at 4.7e-07 M with SUDHL5 (Homo sapiens, SU-DHL-5, 5 h) and 1.3 nM against MCL-1.
With `COc1ccc(CN2Cc3nn(C)c(C)c3-c3c(Cl)ccc4c(CCCOc5cccc6cc(F)ccc56)c(C(=O)O)n(c34)CCCS2(=O)=O)c(OC)c1` (racemic) [Example 49, (rac)-4-chloro-14-(2,4-dimethoxybenzyl)-7-{3-[(6-fluoro-1-naphthyl)oxy]propyl}-2,3-dimethyl-11,12,14,15-tetrahydro-2H,10H-pyrazolo[3′,4′:4,5][1,2,8]thiadiazacycloundecino[6,7,8-hi]indole-8-carboxylic acid 13,13-dioxide], the IC50 with SUDHL5 (Homo sapiens, SU-DHL-5, 5 h) turned out to be 1.8e-07 M; at MCL-1, 3.2 nM.
Turning to `CCc1c2c(nn1C)CN(C)S(=O)(=O)CCCn1c(C(=O)O)c(CCCOc3cccc4cc(F)ccc34)c3ccc(F)c-2c31` (single isomer, unassigned; enantiomer 2) [Example 9, (−)-3-Ethyl-4-fluoro-7-{3-[(6-fluoronaphthalen-1-yl)oxy]propyl}-2,14-dimethyl-13,13-dioxo-10,11,12,13,14,15-hexahydro-2H-13λ^6-pyrazolo[3′,4′:4,5][1,2,8]thiadiazacycloundecino-[6,7,8-hi]indole-8-carboxylic acid (Enantiomer 2)], the concentration for half-maximal inhibition (IC50) is 1.7e-05 M in the data set on SUDHL5 and 34 nM on MCL-1.
`CCc1c2c(nn1C)CN(C)S(=O)(=O)CCCn1c(C(=O)O)c(CCCOc3cc(C)c(Cl)c(C)c3)c3ccc(Cl)c-2c31` [Example 22, (rac)-13-Chloro-1-(3-(4-chloro-3,5-dimethylphenoxy)propyl)-12-ethyl-8,11-dimethyl-4,5,6,8,9,11-hexahydropyrazolo[3′,4′:4,5][1,2,8]thiadiazacycloundecino[6,7,8-hi]indole-2-carboxylic acid 7,7-dioxide]: the IC50 worked out at 2.1e-06 M in the data set on SUDHL5 (Homo sapiens, SU-DHL-5, 5 h) and 3.1 nM on MCL-1.
In the case of `CCNCC.CCc1c2c(nn1C)C(CCN1CCOCC1)N(C)S(=O)(=O)CCCn1c(C(=O)O)c(CCCOc3cccc4cc(F)ccc34)c3ccc(Cl)c-2c31` (single isomer, unassigned; enantiomer 2) [Example 76, 4-chloro-3-ethyl-7-{3-[(6-fluoronaphthalen-1-yl)oxy]propyl}-2,14-dimethyl-15-[2-(morpholin-4-yl)ethyl]-13,13-dioxo-10,11,12,13,14,15-hexahydro-2H-13lambda^6-pyrazolo[3′,4′:4,5][1,2,8]thiadiazacycloundecino[6,7,8-hi]indole-8-carboxylic acid-N-ethylethanamine Salt (Enantiomer 2)], the IC50 in the data set on SUDHL5 amounted to 6.7e-09 M; on MCL-1, 0.59 nM.
As to `Cc1c2c(nn1C)CN(C)S(=O)(=O)CCCn1c(C(=O)O)c(CCCOc3cccc4ccccc34)c3ccc(Cl)c-2c31` (single isomer, unassigned; enantiomer 2) [Example 6, 4-Chloro-2,3,14-trimethyl-7-{3-[(naphthalen-1-yl)oxy]propyl}-13,13-dioxo-10,11,12,13,14,15-hexahydro-2H-13λ^6-pyrazolo[3′,4′:4,5][1,2,8]thiadiazacycloundecino[6,7,8-hi]indole-8-carboxylic acid-N-ethylethanamine salt (Enantiomer 2)], the IC50 with SUDHL5 worked out at 1.2e-05 M; against MCL-1 it was 11 nM.

Values taken from patent publication US11401278B2, “Macrocyclic indole derivatives” (The Broad Institute, Inc., priority 2017, dated 2022).
